Where “and” joins values, the source holds several entries; their conditions need not be identical. Equal entries are not always repeated.
Experiment: Repeated-treatment efficacy for removing an intravenous dose of 238Pu (excretion, tissue retention, clinical observations), female and male arms
Format: in vivo, Swiss-Webster mice
Details: for % Recovered Dose - Feces per Day: male mice, listed as 3,4,3-LI(1,2-HOPO)
Method: The objective of this study was to characterize the efficacy of 3,4,3-L1(1,2-HOPO) at enhancing elimination from an internal plutonium burden in female and male Swiss-Webster mice administered a soluble citrate complex of ^238Pu and treated multiple times, starting at 24 hours after the exposure. Efficacy was evaluated by comparing the tissue contents, urinary and fecal excretions of ^238Pu in treated animals versus untreated animals.
The medical countermeasure 3,4,3-L1(1,2-HOPO) was administered parenterally (ip) or orally (po) via consecutive injections or gavages (six daily or twelve twice daily) starting at 24 hours post contamination at the following four selected doses: 30 μmol/kg ip, 150 μmol/kg po, 300 μmol/kg po, and 600 μmol/kg po (equivalent to respective approximate human doses range of […], using the accepted conversion system of mouse doses into human equivalent doses—HED—based on body surface area). Oral doses also included the permeability enhancer selected during formulation development work.
• Challenge isotope: ^238Pu • Challenge dose: 25 nCi (i.e., approximately 0.8 μCi/kg) • Route of contamination: Intravenous (iv) tail-vein • Route of treatment: Intraperitoneal Injection (ip) or Oral (po) • Frequency of treatment: Multiple (once- or twice-daily for 6 days) doses, starting 24 hr postcontamination • Treatment dose calculation: Dose calculations (mg/kg or μmol/kg) for the decorporation agent were based on the individual body weight measured after contamination. • Study Duration: 11 days, in-life
c. […] Test article and control dose formulations were prepared within 1 day of dose administration, by weighing out the appropriate amount of test article, dispersing in vehicle. For ip solutions, the test article was used alone, while for oral suspensions, a mixture of test article and excipient (90:10, w:w) was used. The pH was adjusted to 7.0-7.4 for ip administration and 5.0-5.5 for oral administration with sterile NaOH. Dose formulations were prepared at room temperature and filter-sterilized. • Storage: 2-8° C.; refrigerated; protected from light. • Characterization: The concentration of each test article formulation was verified by high-performance liquid chromatography-mass spectrometry. • Test Article Handling: Test, reference, and control article formulations were handled with the use of eye protection, gloves, and a protective laboratory coat. • Correct Dose Assurance: The test article was weighed with calibrated balances. The administration of each dose formulation was properly documented, and the amount administered to each animal recorded.
e. Experimental Procedures (In-Life Evaluations and Euthanasia) • Contamination: Single administration by intravenous (iv) tail-vein injection (0.2 mL injection volume) under isoflurane anesthesia. Three standard 0.2 mL injections were performed into polyethylene bottles and pre-loaded with aliquots of concentrated nitric acid on each injection day. Six female and six male mice were culled for necropsy 1 hr post-contamination and were used as standards. A11 standards were processed and counted together with the final samples to allow verification of the contamination dose. • Dose Administration: Single administration by intraperitoneal injection (ip) or oral gavage (po) under isoflurane anesthesia. • Mortality/Morbidity: Assessed at least once daily. • Clinical Observations: Recorded once daily (4 hr post-dose on day of treatment), or more often as clinical signs warranted. […]

## O=C(NCCCN(CCCCN(CCCNC(=O)c1cccc(=O)n1O)C(=O)c1cccc(=O)n1O)C(=O)c1cccc(=O)n1O)c1cccc(=O)n1O [3,4,3-L1(1,2-HOPO)]
Group I, feces day 1, Day 11 necropsy
  % Recovered Dose - Feces per Day: 9.44% and 11.73% and 10.15% and 5.92% and 9.00% and 6.11% and 8.55% and 9.19%
Group I, feces day 3, Day 11 necropsy
  % Recovered Dose - Feces per Day: 7.33% and 7.00% and 5.92% and 6.28% and 9.54% and 7.12% and 7.60% and 4.73%
Group I, feces day 4, Day 11 necropsy
  % Recovered Dose - Feces per Day: 4.73% and 4.29% and 4.45% and 3.39% and 5.21% and 4.16% and 3.65% and 3.13%
Group I, feces day 5, Day 11 necropsy
  % Recovered Dose - Feces per Day: 2.15% and 1.67% and 2.13% and 2.90% and 1.73% and 2.06% and 1.56% and 2.26%
Group I, feces day 6, Day 11 necropsy
  % Recovered Dose - Feces per Day: 1.96% and 1.64% and 1.89% and 2.15% and 2.00% and 1.56% and 1.92% and 1.66%
Group I, feces day 7, Day 11 necropsy
  % Recovered Dose - Feces per Day: 1.48% and 2.52% and 0.83% and 1.51% and 0.94% and 1.29% and 1.15% and 1.02%
Group I, feces day 8, Day 11 necropsy
  % Recovered Dose - Feces per Day: 0.86% and 0.84% and 0.55% and 0.76% and 1.22% and 0.87%
Group I, feces day 9, Day 11 necropsy
  % Recovered Dose - Feces per Day: 0.53% and 0.71% and 0.43% and 0.64% and 0.57% and 0.47% and 0.49%
Group I, feces day 10, Day 11 necropsy
  % Recovered Dose - Feces per Day: 0.46% and 0.52% and 0.43% and 0.45% and 0.40% and 0.47% and 0.36%
Group I, feces day 11, Day 11 necropsy
  % Recovered Dose - Feces per Day: 0.47% and 0.38% and 0.37% and 0.43% and 0.48% and 0.44% and 0.50%
Group L, feces day 2, Day 11 necropsy
  % Recovered Dose - Feces per Day: 9.49% and 10.37% and 11.59% and 15.06% and 13.00% and 13.15% and 16.38% and 8.84%
Group L, feces day 3, Day 11 necropsy
  % Recovered Dose - Feces per Day: 2.02% and 3.23% and 3.48% and 4.47% and 2.87% and 3.37% and 4.43% and 2.71%
Group L, feces day 4, Day 11 necropsy
  % Recovered Dose - Feces per Day: 1.98% and 2.69% and 3.71% and 6.81% and 3.67% and 4.04% and 3.55% and 3.76%
Group L, feces day 5, Day 11 necropsy
  % Recovered Dose - Feces per Day: 1.04% and 1.47% and 2.57% and 2.42% and 1.75% and 1.82% and 2.26% and 1.72%
Group L, feces day 6, Day 11 necropsy
  % Recovered Dose - Feces per Day: 3.32% and 1.94% and 2.97% and 2.78% and 2.36% and 3.15% and 2.15% and 2.74%
Group L, feces day 7, Day 11 necropsy
  % Recovered Dose - Feces per Day: 1.56% and 1.72% and 1.53% and 1.45% and 2.10% and 1.44% and 1.80% and 1.29%
Group L, feces day 8, Day 11 necropsy
  % Recovered Dose - Feces per Day: 1.03% and 1.27% and 1.54% and 1.58% and 1.33% and 1.26% and 1.23% and 0.92%
Group L, feces day 9, Day 11 necropsy
  % Recovered Dose - Feces per Day: 0.88% and 0.94% and 0.96% and 0.57% and 1.17% and 1.08% and 0.78%
Group L, feces day 10, Day 11 necropsy
  % Recovered Dose - Feces per Day: 0.60% and 0.98% and 0.96% and 0.65% and 0.99% and 1.01% and 1.02% and 0.90%
Group L, feces day 11, Day 11 necropsy
  % Recovered Dose - Feces per Day: 0.63% and 0.89% and 0.79% and 0.66% and 0.87% and 0.84%
Group M, feces day 2, Day 11 necropsy
  % Recovered Dose - Feces per Day: 16.84% and 15.20% and 15.54% and 13.29% and 15.04% and 19.29% and 14.53% and 19.54%
Group M, feces day 3, Day 11 necropsy
  % Recovered Dose - Feces per Day: 4.32% and 6.13% and 4.17% and 2.65% and 4.16% and 6.33% and 4.24% and 3.82%
Group M, feces day 4, Day 11 necropsy
  % Recovered Dose - Feces per Day: 3.42% and 4.94% and 4.01% and 4.02% and 6.06% and 4.40% and 3.22% and 2.93%
Group M, feces day 5, Day 11 necropsy
  % Recovered Dose - Feces per Day: 1.00% and 2.50% and 1.52% and 1.62% and 1.76% and 1.90% and 1.20% and 1.08%
Group M, feces day 6, Day 11 necropsy
  % Recovered Dose - Feces per Day: 10.71% and 2.32% and 2.47% and 1.70% and 3.63% and 2.41% and 1.58% and 1.99%
Group M, feces day 7, Day 11 necropsy
  % Recovered Dose - Feces per Day: 5.02% and 2.31% and 1.09% and 1.15% and 1.51% and 1.35% and 0.86% and 1.01%
Group M, feces day 8, Day 11 necropsy
  % Recovered Dose - Feces per Day: 1.81% and 1.55% and 1.22% and 0.94% and 1.24% and 2.07% and 0.87% and 1.10%
Group M, feces day 9, Day 11 necropsy
  % Recovered Dose - Feces per Day: 1.01% and 1.12% and 0.73% and 0.57% and 0.96% and 0.64% and 0.76%
Group M, feces day 10, Day 11 necropsy
  % Recovered Dose - Feces per Day: 0.48% and 0.47% and 0.92% and 0.59% and 0.65% and 1.22% and 0.76% and 0.85%
Group M, feces day 11, Day 11 necropsy
  % Recovered Dose - Feces per Day: 0.57% and 0.46% and 0.82% and 0.41% and 0.70% and 1.12% and 0.68% and 1.01%
male, 6 daily oral treatments, 600 μmol/kg, 11 days post-contamination
  increase in total 238Pu excretion compared to the control groups: up to 156%
male, all analyzed tissues, all dosing regimens
  tissue content of 238Pu compared to saline control group: large reductions
male, all treated groups
  full body content of 238Pu compared to saline control groups: significant reductions
male, once-daily oral 600 μmol/kg, 11 days post-contamination
  decrease in body burden compared to the control groups: up to 48%
male, oral once-daily 300 and 600 μmol/kg
  decorporation efficacy relative to parenteral DTPA: equivalent to that of parenteral treatment with DTPA
male, oral twice-daily 150 and 300 μmol/kg or once-daily 300 and 600 μmol/kg, 7 days post-contamination
  238Pu elimination enhancement: significant
